Test results published in publication doi:10.1101/365775v1 (biorxiv, 2018).

Biological target: T1, mSec18 (monomeric Sec18; Sec18His8) (Saccharomyces cerevisiae, UniProt P18759)
T1 sequence (P18759 1-758): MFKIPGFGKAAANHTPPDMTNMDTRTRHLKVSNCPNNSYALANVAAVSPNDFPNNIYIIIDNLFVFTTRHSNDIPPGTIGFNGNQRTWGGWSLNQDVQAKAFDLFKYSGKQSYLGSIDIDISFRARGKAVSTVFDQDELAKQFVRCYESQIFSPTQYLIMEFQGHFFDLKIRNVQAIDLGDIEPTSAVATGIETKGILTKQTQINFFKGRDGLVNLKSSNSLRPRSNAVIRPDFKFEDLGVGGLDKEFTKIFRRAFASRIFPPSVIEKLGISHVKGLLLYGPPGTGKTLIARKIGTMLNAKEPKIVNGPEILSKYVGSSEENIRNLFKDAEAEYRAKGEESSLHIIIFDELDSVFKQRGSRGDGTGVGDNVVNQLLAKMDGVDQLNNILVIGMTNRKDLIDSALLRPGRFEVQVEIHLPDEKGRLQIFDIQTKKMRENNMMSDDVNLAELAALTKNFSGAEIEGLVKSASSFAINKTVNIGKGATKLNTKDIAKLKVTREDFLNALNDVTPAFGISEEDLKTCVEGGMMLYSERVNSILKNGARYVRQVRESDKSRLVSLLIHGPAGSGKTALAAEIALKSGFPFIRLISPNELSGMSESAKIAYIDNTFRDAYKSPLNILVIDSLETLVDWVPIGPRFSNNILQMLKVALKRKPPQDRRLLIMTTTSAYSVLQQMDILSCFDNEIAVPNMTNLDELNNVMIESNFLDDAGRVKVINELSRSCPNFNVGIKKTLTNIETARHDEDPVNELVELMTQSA
Assay: microscale thermophoresis
Format: binding

Kd: 56 ± 16 µM
Structure (SMILES): Nc1ncnc2c1ncn2[C@@H]1O[C@H](COP(=O)(O)OP(=O)(O)OP(=O)(O)O)[C@@H](O)[C@H]1O [ATP]
